Laboratory results from patent publication US20020037858A1, “Pharmaceutical compositions comprising moexipril magnesium” (priority 2000, published 2002).

Assay: Stability of moexipril magnesium salt in solid compositions
Type: physicochemical
Settings: solid compositions without an alkaline stabilizing compound in the final composition

CCOC(=O)[C@H](CCc1ccccc1)N[C@@H](C)C(=O)N1Cc2cc(OC)c(OC)cc2C[C@H]1C(=O)O.[Mg] [moexipril magnesium]
stability of the salt: sufficiently stable to enable stable solid compositions
